Earlier results, collected in PMC4422128, “Discovery of sea urchin NGFFFamide receptor unites a bilaterian neuropeptide family” (Open Biology, 2015).
“Also recorded” adds a separate entry of the source. Positions of bridges follow the written chain, without caps; N, C: chain ends. No end group written: not given here.

Key:
crab hearts = test system: crab hearts; set-up: method as in PMID 16593803
[1] = test system: NPSR-type protein in Drosophila
From the text: Furthermore, the ligand that activ ...

arthropods = conditions: insects (b4)
From the text: Furthermore, the ligand that activ ... || Our discovery that the NPS/CCAP-type receptor in the sea urchin S. purpuratus is activated by the NG peptide NGFFFamide provides a basis for investigation of the physiological roles of NG peptides in deuterostomian invertebrates. This will provide new insights into the evolution of the physiological and behavioural functions of NPS/NG peptide/CCAP-type neuropeptides in the animal kingdom. Based upon what is currently known, a common theme seems to be a role in control of behaviours that are associated with a heightened state of arousal. Thus, NPS causes anxiolysis and arousal in mammals, ...

rodents = rodents (b3); mammals
From the text: This will provide new insights into the evolution of the physiological and behavioural functions of NPS/NG peptide/CCAP-type neuropeptides in the animal kingdom. Based upon what is currently known, a common theme seems to be a role in control of behaviours that are associated with a heightened state of arousal. Thus, NPS causes anxiolysis and arousal in mammals, ...

VRR1/GPR154 (NPSR) = test system: VRR1/GPR154 (NPSR); set-up: method as in PMID 15312648; conditions: purified from brain extracts

In the case of “PFCNAFTGC-NH2 (disulfide 3-9 (inferred)) [CCAP, crustacean cardioactive peptide]”, the “effect on crab hearts” value (crab hearts) is listed as “excitatory effect on crab hearts”, the “activation of NPSR-type protein in Drosophila” value [1] is listed as “activates the NPSR-type protein in Drosophila” and the control/activation of ecdysis (arthropods) is listed as “activates the ecdysis motor programme; also recorded: controls ecdysis behaviour in insects”.

In the case of “SFRNGVGTGMKKTSFQRAKS [NPS, neuropeptide-S]”, the “physiological action of NPS: anxiety” value (rodents) is given as “anxiolytic-like action; also recorded: anxiolysis”, the “physiological action of NPS: arousal” value (rodents) is given as “causing arousal” and the “ligand activity at VRR1/GPR154, NPS” value (VRR1/GPR154 (NPSR)) is given as “endogenous ligand”.
